This note sets out measurements from ChEMBL document CHEMBL1201862, “PubChem BioAssay data set” (2004).

Among the test systems are DU-145; HCT-15; HL-60; HOP-92; Hs-578T; IGROV-1; KM-20L2; MDA-MB-231; MDA-MB-435; Malme-3M; NCI-H23; NCI-H460; NCI-H522; OVCAR-4; OVCAR-5; SF-295; SN12C; T47D; UACC-257; UO-31.
Common to all, as to assay: NCI-60 cell line screen, 48 h

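These data come from cells grown in 96-well plates and exposed to compound for 48 hours at five concentrations. GI50 marks 50% less growth.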 Calls of active or inactive are those of the source. No stated cut-off is given here; in the data, active = GI50 up to about 1.1 µM and inactive = higher. A value given as a limit tells only on which side of the number the result lay.

As for `CN(C)CCC(=O)N1C/C(=C/c2ccccc2)C(=O)/C(=C\c2ccccc2)C1`, the GI50 with DU-145 is 6.79 µM (inactive); in the assay with HCT-15, 1.05 µM; in the assay with HL-60, 0.356 µM (active); in the assay on HOP-92, 7.11 µM (inactive); with Hs-578T, 3.55 µM (inactive); with IGROV-1 it was 2.59 µM (inactive). The GI50 is 0.998 µM (active) in the assay on KM-20L2; 0.735 µM (active) in the assay with MDA-MB-231; 1.43 µM (inactive) in the assay with MDA-MB-435; 2.16 µM (inactive) in the assay on Malme-3M; 2.29 µM (inactive) with NCI-H23; 2.33 µM (inactive) with NCI-H460. Moreover, the GI50 with NCI-H522 was 0.301 µM (active); in the assay with OVCAR-4, 2.17 µM (inactive); in the assay on OVCAR-5, 2.6 µM (inactive); in the assay with SF-295 it was 2.93 µM (inactive); with SN12C, 1.25 µM (inactive); with T47D, 4.82 µM (inactive). The GI50 in the assay on UACC-257 is 2.08 µM (inactive); in the assay with UO-31 it was 2.36 µM (inactive).
With `O=c1c(-c2ccccc2)c(O)nc2[nH]c3ccccc3n12`, the GI50 in the assay with HCT-15 was over 100 µM; with HL-60 it was > 100 µM (inactive); in the assay on HOP-92, > 100 µM (inactive); in the assay on IGROV-1, > 100 µM (inactive); in the assay on KM-20L2, > 100 µM (inactive); with Malme-3M, > 100 µM (inactive). Besides, the GI50 in the assay on NCI-H23, in the assay on NCI-H460, in the assay on NCI-H522, with OVCAR-4, in the assay with OVCAR-5 and in the assay with SF-295 was > 100 µM (inactive) throughout. For the same compound, the GI50 in the assay with SN12C, in the assay on UACC-257 and with UO-31 was > 100 µM (inactive) in each case.
Turning to `NC(=O)NC1C(C(=O)O)N(Cc2ccccc2)C(=O)N1Cc1ccccc1` (stereo not drawn), the GI50 in the assay on HCT-15 is over 100 µM; in the assay on HL-60, > 100 µM (inactive); in the assay with HOP-92, > 100 µM (inactive); in the assay with IGROV-1, > 100 µM (inactive); in the assay with KM-20L2 it was > 100 µM (inactive); with Malme-3M, > 100 µM (inactive). Moreover, the GI50 in the assay with NCI-H23, in the assay with NCI-H460, with NCI-H522, in the assay with OVCAR-4, with OVCAR-5 and in the assay on SF-295 was > 100 µM (inactive) in each case. Moreover, the GI50 in the assay on UACC-257 and in the assay with UO-31 was > 100 µM (inactive) in each case.
As to `CC[C@@]1(OC(=O)CN(C)C)C(=O)OCc2c1cc1n(c2=O)Cc2cc3ccccc3nc2-1`, the GI50 in the assay on DU-145 was 0.013 µM (active); in the assay with HCT-15, 0.228 µM; with HL-60 it was 0.0105 µM (active); in the assay with HOP-92 it was 0.119 µM (active); in the assay on Hs-578T, 4.24 µM (inactive); with IGROV-1, 0.242 µM (active). Also, the GI50 in the assay on KM-20L2 is 0.249 µM (active); in the assay on MDA-MB-231, 3.27 µM (inactive); in the assay with MDA-MB-435 it was 0.194 µM (active); in the assay with Malme-3M it was 0.347 µM (active); with NCI-H23, 0.0865 µM (active); in the assay with NCI-H460, 0.00533 µM (active). The GI50 with NCI-H522 is 0.255 µM (active); in the assay on OVCAR-4, 0.482 µM (active); in the assay on OVCAR-5 it was 0.247 µM (active); with SF-295 it was 0.01 µM (active); in the assay with SN12C, < 0.0191 µM (active); in the assay on UACC-257, 0.11 µM (active). Moreover, the GI50 in the assay with UO-31 was 0.0296 µM (active).
Consider `COC(=O)C12C3C4C5C3(C#N)C1C5(C(=O)OC)C42C(=O)N(C(C)C)C(C)C` (stereo not drawn), for which the GI50 with HCT-15 was over 42.2 µM; in the assay on HL-60, > 43.7 µM (inactive); with HOP-92, > 100 µM (inactive); in the assay with IGROV-1 it was > 100 µM (inactive); with KM-20L2, > 100 µM (inactive); in the assay on Malme-3M, > 100 µM (inactive). Besides, the GI50 with NCI-H23 is > 100 µM (inactive); in the assay with NCI-H460 it was > 57.5 µM (inactive); in the assay with NCI-H522, > 33.4 µM (inactive); in the assay on OVCAR-4 it was > 100 µM (inactive); with OVCAR-5, > 100 µM (inactive); in the assay with SF-295, > 100 µM (inactive). Besides, the GI50 in the assay with SN12C, in the assay on UACC-257 and in the assay with UO-31 was > 100 µM (inactive) throughout.
Regarding `CSc1nc(NC2OC(COC(C)=O)C(OC(C)=O)C(OC(C)=O)C2OC(C)=O)c(-c2csc(N)n2)c(=O)n1C` (stereo not drawn), the GI50 in the assay on HCT-15 was 97.1 µM; in the assay on HL-60, > 100 µM (inactive); with HOP-92 it was 23.5 µM (inactive); with IGROV-1 it was 34.1 µM (inactive); in the assay with KM-20L2 it was > 100 µM (inactive); with Malme-3M, 28.9 µM (inactive). The GI50 with NCI-H23 was 39.3 µM (inactive); with NCI-H460 it was 39.1 µM (inactive); in the assay on NCI-H522, 56.2 µM (inactive); with OVCAR-4, 21.8 µM (inactive); in the assay on OVCAR-5 it was > 100 µM (inactive); with SF-295, 33.6 µM (inactive). The GI50 in the assay with SN12C is 49.5 µM (inactive); in the assay on UACC-257 it was 32.9 µM (inactive); in the assay with UO-31, 24.6 µM (inactive).
In the case of `NCCCCN(CCCN)/[N+]([O-])=N\O`, the GI50 with HCT-15 is over 100 µM; in the assay with HL-60, > 100 µM (inactive); in the assay on HOP-92, > 100 µM (inactive); in the assay on IGROV-1, > 100 µM (inactive); with KM-20L2, > 100 µM (inactive); with Malme-3M it was > 100 µM (inactive). In addition, the GI50 with NCI-H23, with NCI-H460, with NCI-H522, in the assay on OVCAR-4, with OVCAR-5 and in the assay with SF-295 was > 100 µM (inactive) in each case. The GI50 in the assay on SN12C, in the assay on UACC-257 and in the assay on UO-31 was > 100 µM (inactive) each time.
On to `CN(C)[C@@H]1C(O)=C(C(=O)NCNc2nc3[nH]nnc3c(=O)[nH]2)C(=O)[C@@]2(O)C(O)=C3C(=O)c4c(O)cccc4[C@@](C)(O)[C@H]3C[C@@H]12`, for which the GI50 with DU-145 is 1.27 µM (inactive); in the assay with HCT-15, 42.5 µM; in the assay on HL-60 it was 0.231 µM (active); in the assay on HOP-92, 1.3 µM (inactive); in the assay with Hs-578T, 2 µM (inactive); in the assay with IGROV-1, 15.9 µM (inactive). In addition, the GI50 in the assay on KM-20L2 is 16.2 µM (inactive); in the assay with MDA-MB-231 it was 0.883 µM (active); with MDA-MB-435, 0.452 µM (active); with Malme-3M, 0.773 µM (active); in the assay with NCI-H23, 35.3 µM (inactive); in the assay on NCI-H460, 24.3 µM (inactive). In addition, the GI50 in the assay on NCI-H522 is 20.4 µM (inactive); with OVCAR-4, 8.63 µM (inactive); in the assay with OVCAR-5, 33.5 µM (inactive); in the assay with SF-295, 4.47 µM (inactive); in the assay on SN12C it was 0.743 µM (active); in the assay on T47D, 5.37 µM (inactive). Further, the figures for the GI50 with UACC-257 and in the assay with UO-31 were 1.28 µM (inactive) and 0.358 µM (active), respectively.
Regarding `COC(=O)/C=C/C1C2C3(CCC(C)C12C)OCCS3` (stereo not drawn), the GI50 in the assay with HCT-15 is over 100 µM; with HL-60 it was > 100 µM (inactive); with HOP-92, > 100 µM (inactive); in the assay on IGROV-1, > 100 µM (inactive); in the assay with KM-20L2, > 100 µM (inactive); with Malme-3M, > 100 µM (inactive). For the same compound, the GI50 in the assay on NCI-H23, with NCI-H460, in the assay with NCI-H522, with OVCAR-4, in the assay with OVCAR-5 and with SF-295 was > 100 µM (inactive) throughout. For the same compound, the GI50 in the assay with SN12C, in the assay on UACC-257 and in the assay on UO-31 was > 100 µM (inactive) each time.
Take `CCN(CC)CCNc1ccc2nnn3c4ccccc4c(=O)c1c23`: the GI50 was 4.51 µM in the assay on HCT-15; 2.89 µM (inactive) in the assay on HL-60; 2.48 µM (inactive) in the assay on HOP-92; 6.98 µM (inactive) in the assay with IGROV-1; 3.32 µM (inactive) with KM-20L2; 4.01 µM (inactive) with Malme-3M. In addition, the GI50 with NCI-H23 was 5.81 µM (inactive); in the assay on NCI-H460, 2.25 µM (inactive); in the assay on NCI-H522 it was 4.75 µM (inactive); in the assay on OVCAR-4, 3.51 µM (inactive); in the assay with OVCAR-5, 3.67 µM (inactive); in the assay on SF-295, 4.29 µM (inactive). In addition, the GI50 in the assay on SN12C is 4.41 µM (inactive); in the assay with UACC-257, 4.48 µM (inactive); in the assay on UO-31 it was 4.46 µM (inactive).
